Reference: ChEMBL document CHEMBL1137396, “Discovery of (1R,5S)-N-[3-amino-1-(cyclobutylmethyl)-2,3-dioxopropyl]- 3-[2(S)-[[[(1,1-dimethylethyl)amino]carbonyl]amino]-3,3-dimethyl-1-oxobutyl]- 6,6-dimethyl-3-azabicyclo[3.1.0]hexan-2(S)-carboxamide (SCH 503034), a selective, potent, orally bioavailable hepatitis C virus NS3 protease …” (J Med Chem, 2006)

Columns and labels:
NS3 = NS3 (Hepatitis C virus, UniProt A3EZJ3); test: Binding affinity at HCV NS3 protease; set-up: species or system Hepatitis C virus subtype 1b
Sequence of NS3 (A3EZJ3 whole entry): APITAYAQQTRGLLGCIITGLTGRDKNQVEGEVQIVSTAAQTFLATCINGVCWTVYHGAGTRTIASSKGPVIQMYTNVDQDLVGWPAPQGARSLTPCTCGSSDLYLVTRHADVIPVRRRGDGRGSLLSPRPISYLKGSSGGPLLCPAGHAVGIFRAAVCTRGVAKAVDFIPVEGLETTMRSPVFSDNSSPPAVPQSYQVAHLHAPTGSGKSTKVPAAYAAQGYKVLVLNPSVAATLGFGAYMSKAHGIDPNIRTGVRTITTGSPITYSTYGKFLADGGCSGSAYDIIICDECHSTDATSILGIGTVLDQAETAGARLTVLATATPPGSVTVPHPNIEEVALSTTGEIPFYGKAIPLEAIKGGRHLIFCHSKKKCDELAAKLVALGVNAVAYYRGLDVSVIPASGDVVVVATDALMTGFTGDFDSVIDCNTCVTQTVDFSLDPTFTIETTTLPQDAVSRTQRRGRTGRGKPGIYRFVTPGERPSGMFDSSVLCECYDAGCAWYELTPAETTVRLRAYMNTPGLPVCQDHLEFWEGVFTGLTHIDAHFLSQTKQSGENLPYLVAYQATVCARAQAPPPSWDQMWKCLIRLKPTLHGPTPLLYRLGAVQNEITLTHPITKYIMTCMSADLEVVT

[1] = Selectivity for human neutrophil elastase (HNE) over HCV NS3 protease
Hepatocyte = test: Inhibition of HCV replication in hepatocytes measured by cellular replicon assay; format: functional; settings: Hepatitis C virus
Huh-5-2 = test: Cytotoxicity against hepatoma cell line containing HCV replicon measured as change in GAPDH RNA level; format: functional, Homo sapiens
[2] = AUC in rat at 10 mg/kg, po; format: ADME, organism-based; set-up: dose 10 mg/kg, route oral; settings: plasma
[3] = Bioavailability in rat at 10 mg/kg, po; format: ADME, organism-based; settings: in vivo
[4] = AUC(0-6h) in rat at 10 mg, po; format: ADME, organism-based; set-up: time < 6 hr, dose 10 mg, route oral; settings: plasma

| SMILES | Ki (NS3) [nM] | Selectivity ratio [1] | other results |
| --- | --- | --- | --- |
| CC(C)CC(NC(=O)[C@@H]1[C@@H]2[C@H](CN1C(=O)[C@@H](NC(=O)OC(C)(C)C)C1CCCCC1)C2(C)C)C(=O)C(N)=O (some centres undefined) | 400 | 9 | – |
| CCCC(NC(=O)[C@@H]1[C@@H]2[C@H](CN1C(=O)[C@@H](NC(=O)OC(C)(C)C)C1CCCCC1)C2(C)C)C(=O)C(=O)NCC(=O)N[C@H](C)c1ccccc1 (some centres undefined) | 55 | – | – |
| CC(C)(C)OC(=O)N[C@H](C(=O)N1C[C@H]2[C@@H]([C@H]1C(=O)NC1(C(=O)C(N)=O)CC1)C2(C)C)C1CCCCC1 | > 14000 | – | – |
| C=CCCC(NC(=O)[C@@H]1[C@@H]2[C@H](CN1C(=O)[C@@H](NC(=O)OC(C)(C)C)C1CCCCC1)C2(C)C)C(=O)C(N)=O (some centres undefined) | 150 | 2 | – |
| CC(C)[C@H](C)OC(=O)N[C@H](C(=O)N1C[C@H]2[C@@H]([C@H]1C(=O)NC(CC1CCC1)C(=O)C(N)=O)C2(C)C)C(C)(C)C (some centres undefined) | 36 | 3800 | EC90 (Hepatocyte): 700 nM; Activity (Huh-5-2): >5 µM |
| CCCC(NC(=O)[C@@H]1[C@@H]2[C@H](CN1C(=O)[C@@H](NC(=O)OC(C)(C)C)C1CCCCC1)C2(C)C)C(=O)C(=O)NCC(N)=O (some centres undefined) | 790 | – | – |
| CC(C)COC(=O)N[C@H](C(=O)N1C[C@H]2[C@@H]([C@H]1C(=O)NC(CC1CC1)C(=O)C(N)=O)C2(C)C)C(C)(C)C (some centres undefined) | 70 | 160 | – |
| CCCCNC(=O)C(=O)C(CCC)NC(=O)[C@@H]1[C@@H]2[C@H](CN1C(=O)[C@@H](NC(=O)OC(C)(C)C)C1CCCCC1)C2(C)C (some centres undefined) | 1900 | – | – |
| CCC(NC(=O)[C@@H]1[C@@H]2[C@H](CN1C(=O)[C@@H](NC(=O)OC(C)(C)C)C1CCCCC1)C2(C)C)C(=O)C(N)=O (some centres undefined) | 740 | – | – |
| CC(C)(C)OC(=O)N[C@H](C(=O)N1C[C@H]2[C@@H]([C@H]1C(=O)NC(CC1COC1)C(=O)C(N)=O)C2(C)C)C1CCCCC1 (some centres undefined) | 400 | – | EC90 (Hepatocyte): > 1000 nM; Activity (Huh-5-2): >5 µM |
| CC(C)NC(=O)N[C@H](C(=O)N1C[C@H]2[C@@H]([C@H]1C(=O)NC(CC1CCC1)C(=O)C(N)=O)C2(C)C)C(C)(C)C (some centres undefined) | 16 | 4200 | AUC [2]: 0.83 µM·h; EC90 (Hepatocyte): 730 nM; bioavailability [3]: 13%; Activity (Huh-5-2): >5 µM |
| CN(C(=O)N[C@H](C(=O)N1C[C@H]2[C@@H]([C@H]1C(=O)NC(CC1CC1)C(=O)C(N)=O)C2(C)C)C(C)(C)C)C(C)(C)C (some centres undefined) | 60 | 45 | EC90 (Hepatocyte): > 1000 nM; Activity (Huh-5-2): >5 µM |
| CC(C)(C)OC(=O)N[C@H](C(=O)N1C[C@H]2[C@@H]([C@H]1C(=O)NC(CC1CC1)C(=O)C(N)=O)C2(C)C)C(C)(C)C (some centres undefined) | – | – | EC90 (Hepatocyte): 600 nM; Activity (Huh-5-2): >5 µM |
| CCCC(NC(=O)[C@@H]1[C@@H]2[C@H](CN1C(=O)[C@@H](NC(=O)OC(C)(C)C)C1CCCCC1)C2(C)C)C(=O)C(=O)NCC(=O)OC(C)(C)c1ccccc1 (some centres undefined) | 50 | – | – |
| CC1(NC(=O)N[C@H](C(=O)N2C[C@H]3[C@@H]([C@H]2C(=O)NC(CC2CC2)C(=O)C(N)=O)C3(C)C)C(C)(C)C)CC1 (some centres undefined) | 80 | 100 | EC90 (Hepatocyte): 900 nM; Activity (Huh-5-2): >5 µM |
| CCCC(NC(=O)[C@@H]1[C@@H]2[C@H](CN1C(=O)[C@@H](NC(=O)OC(C)(C)C)C1CCCCC1)C2(C)C)C(=O)C(=O)NCC(=O)N[C@@H](C)C1CCCCC1 (some centres undefined) | 92 | – | – |
| CC(C)(C)OC(=O)N[C@H](C(=O)N1C[C@H]2[C@@H]([C@H]1C(=O)NC(CC1CCC1)C(=O)C(N)=O)C2(C)C)C(C)(C)O (some centres undefined) | 220 | 55 | – |
| CC(C)(C)OC(=O)N[C@H](C(=O)N1C[C@H]2[C@@H]([C@H]1C(=O)NC(CC1CCCC1)C(=O)C(N)=O)C2(C)C)C1CCCCC1 (some centres undefined) | 150 | 370 | – |
| CC(C)(C)NC(=O)N[C@H](C(=O)N1C[C@H]2[C@@H]([C@H]1C(=O)NC(CC1CCC1)C(=O)C(N)=O)C2(C)C)C1CCCCC1 (some centres undefined) | 50 | 90 | – |
| CC(C)[C@H](NC(=O)OC(C)(C)C)C(=O)N1C[C@H]2[C@@H]([C@H]1C(=O)NC(CC1CC1)C(=O)C(N)=O)C2(C)C (some centres undefined) | 210 | 19 | – |
| C=CCNC(=O)C(=O)C(CCC)NC(=O)[C@@H]1[C@@H]2[C@H](CN1C(=O)[C@@H](NC(=O)OC(C)(C)C)C1CCCCC1)C2(C)C (some centres undefined) | 280 | – | AUC(0-t) at 6 h [4]: 26 µM·h |

| SMILES | Ki (NS3) [nM] | Selectivity ratio [1] | other results |
| --- | --- | --- | --- |
| CC(C)(C)[C@H](NC(=O)OC1CC1)C(=O)N1C[C@H]2[C@@H]([C@H]1C(=O)NC(CC1CC1)C(=O)C(N)=O)C2(C)C (some centres undefined) | 300 | – | – |
| CC(C)(C)OC(=O)N[C@H](C(=O)N1C[C@H]2[C@@H]([C@H]1C(=O)NC(CC1CCC1)C(=O)C(N)=O)C2(C)C)C(C)(C)C (some centres undefined) | 76 | 684 | EC90 (Hepatocyte): 800 nM; Activity (Huh-5-2): >5 µM |
| CCCC(NC(=O)[C@@H]1[C@@H]2[C@H](CN1C(=O)[C@@H](NC(=O)OC(C)(C)C)C1CCCCC1)C2(C)C)C(=O)C(=O)O (some centres undefined) | 110 | – | – |
| CC(C)NC(=O)N[C@H](C(=O)N1C[C@H]2[C@@H]([C@H]1C(=O)NC(CC1CC1)C(=O)C(N)=O)C2(C)C)C(C)(C)C (some centres undefined) | 140 | 160 | – |
| CC(C)(C)OC(=O)N[C@H](C(=O)N1C[C@H]2[C@@H](C1C(=O)NC(CC1CCO1)C(=O)C(N)=O)C2(C)C)C1CCCCC1 (some centres undefined) | 90 | 140 | – |
| CC(C)OC(=O)N[C@H](C(=O)N1C[C@H]2[C@@H]([C@H]1C(=O)NC(CC1CC1)C(=O)C(N)=O)C2(C)C)C(C)(C)C (some centres undefined) | 150 | 100 | – |
| CCCC(NC(=O)[C@@H]1[C@@H]2[C@H](CN1C(=O)[C@@H](NC(=O)OC(C)(C)C)C1CCCCC1)C2(C)C)C(=O)C(=O)N(C)C (some centres undefined) | > 13000 | – | – |
| CC(C)(C)OC(=O)N[C@H](C(=O)N1C[C@H]2[C@@H]([C@H]1C(=O)NC(CC1CC1)C(=O)C(N)=O)C2(C)C)C1CCCC1 (some centres undefined) | 100 | 11 | – |
| CC(C)(C)OC(=O)N[C@H](C(=O)N1C[C@H]2[C@@H]([C@H]1C(=O)NC(CC1CCC1)C(=O)C(N)=O)C2(C)C)C1Cc2ccccc2C1 (some centres undefined) | 270 | – | EC90 (Hepatocyte): 2000 nM; Activity (Huh-5-2): >5 µM |
| CC(C)(C)OC(=O)N[C@H](C(=O)N1C[C@H]2[C@@H]([C@H]1C(=O)NC(CC1CC1)C(=O)C(N)=O)C2(C)C)C1CCCCC1 (some centres undefined) | 25 | 23 | AUC [2]: 1.3 µM·h; EC90 (Hepatocyte): 400 nM; bioavailability [3]: 3.4%; Activity (Huh-5-2): >5 µM |
| CC(C)(C)OC(=O)N[C@H](C(=O)N1C[C@H]2[C@@H]([C@H]1C(=O)NC(CC1CCC1)C(=O)C(N)=O)C2(C)C)C1(C)CC1 (some centres undefined) | 700 | – | – |
| CCCC(NC(=O)[C@@H]1[C@@H]2[C@H](CN1C(=O)[C@@H](NC(=O)OC(C)(C)C)C1CCCCC1)C2(C)C)C(=O)C(=O)NCC(=O)NCC1CC1 (some centres undefined) | 130 | – | – |
| C=C(C)CC(NC(=O)[C@@H]1[C@@H]2[C@H](CN1C(=O)[C@@H](NC(=O)OC(C)(C)C)C1CCCCC1)C2(C)C)C(=O)C(N)=O (some centres undefined) | 300 | 2 | – |
| CC(C)(C)NC(=O)N[C@H](C(=O)N1C[C@H]2[C@@H]([C@H]1C(=O)NC(CC1CC1)C(=O)C(N)=O)C2(C)C)C1CCCCC1 (some centres undefined) | 50 | 38 | – |
| CC(C)(C)OC(=O)N[C@H](C(=O)N1C[C@H]2[C@@H]([C@H]1C(=O)NC(CC1CC1)C(=O)C(N)=O)C2(C)C)C1Cc2ccccc2C1 (some centres undefined) | 82 | 49 | EC90 (Hepatocyte): > 1000 nM; Activity (Huh-5-2): >5 µM |
| CC(C)(C)OC(=O)N[C@H](C(=O)N1C[C@H]2[C@@H]([C@H]1C(=O)NC(CC1CCCCC1)C(=O)C(N)=O)C2(C)C)C1CCCCC1 (some centres undefined) | > 12000 | – | – |
| CCCC(NC(=O)[C@@H]1[C@@H]2[C@H](CN1C(=O)[C@@H](NC(=O)OC(C)(C)C)C1CCCCC1)C2(C)C)C(=O)C(=O)NC (some centres undefined) | 1500 | – | AUC(0-t) at 6 h [4]: 13.4 µM·h |
| CC(C)(C)OC(=O)N[C@H](C(=O)N1C[C@H]2[C@@H]([C@H]1C(=O)NC(CC1CC1)C(=O)C(N)=O)C2(C)C)C1(C)CC1 (some centres undefined) | 300 | – | – |
| C[C@@H](NC(=O)N[C@H](C(=O)N1C[C@H]2[C@@H]([C@H]1C(=O)NC(CC1CCC1)C(=O)C(N)=O)C2(C)C)C(C)(C)C)C(C)(C)C (some centres undefined) | 35 | 380 | EC90 (Hepatocyte): 400 nM; Activity (Huh-5-2): >5 µM |
| CN(C(=O)N[C@H](C(=O)N1C[C@H]2[C@@H]([C@H]1C(=O)NC(CC1CCC1)C(=O)C(N)=O)C2(C)C)C(C)(C)C)C(C)(C)C (some centres undefined) | 100 | 270 | – |
| CC(C)(C)OC(=O)N[C@H](C(=O)N1C[C@H]2[C@@H](C1C(=O)NC(CC(F)(F)F)C(=O)C(N)=O)C2(C)C)C1CCCCC1 (some centres undefined) | 50 | 2 | EC90 (Hepatocyte): 700 nM; Activity (Huh-5-2): >5 µM |
